Source: patent US12055547B2, “TMEM active test and uses thereof in diagnosis, prognosis and treatment of tumors” (Albert Einstein College of Medicine, priority 2015, dated 2024)

What was measured:
macrophages = experiment: Macrophage depletion in PyMT tumors in the MAFIA mouse model; assay type: in vivo; settings: vs vehicle
From the text: Summary Tumor cell intravasation at sites of transient vascular permeability associated with TMEM was studied using mouse mammary tumor virus—polyoma middle T antigen (MMTV-PyMT) autochthonous and implanted models of human patient-derived mammary carcinoma. Single cell resolution of cell activity at TMEM in live animals was achieved using extended time-lapse imaging on a custom-built two-laser multiphoton microscope. To investigate the role of macrophages in tumor cell intravasation and blood vessel permeability, the MAFIA mouse model was used to deplete macrophages. Observation of extravascular dextran, vascular junction proteins and protein expression in tissue was performed using immunofluorescence microscopy. Further investigation of the mechanism of macrophage-mediated tumor cell intravasation and blood vessel permeability at TMEM utilized anti-mouse-VEGFA inhibitory antibody and the ablation of Vegfa expression in monocytes using a myeloid-specific (Csf1r promoter), tamoxifen-inducible Cre expressing mouse strain was crossed with Vegfa^flox/flox mice with gene ablation induced with tamoxifen.
Immunofluorescence image analysis. […] The remaining extravascular dextran area, and blood vessel area were then measured. […]

[1] = system: Tie2 macrophage function in TMEM; experiment: TMEM density and TMEM activity (IV-dextran/ZO-1 staining) in tumor after rebastinib; assay type: in vivo
From the text: FIG. 11A-11B. […] (B) Quantification of vascular permeability activity of tumor TMEM using vascular permeability marker IV-dextran/ZO-1 staining intensity (n=7 and 9; * , P=0.0177).
The relative activity of TMEM can be quantified in (e.g., FFPE) tissue sections in several ways, e.g.: • 1. as the ratio of IV-dextran (or other IV contrast agent) that has leaked from the blood vessel into the tissue at the time of Formaldehyde Fixation after IV injection of contrast agent in preparation for FFPE (measure of local vascular permeability) divided by ZO-1 or VE-Cad staining intensity at TMEM (FIG. 11). Higher dextran/ZO-1=more TMEM activity; • 2. as the ratio of ZO-1 or VE-Cad staining intensity at TMEM per area of blood vessel (CD31 staining area) (FIG. 12). Higher VE-Cad or ZO-1/CD31=less TMEM activity; • 3. as the absolute intensity of ZO-1 or VE-Cad staining intensity at TMEM sites (FIG. 10). Higher VE-Cad staining=less TMEM activity.
The activity status of TMEM (TMEM^Active) in patient tissue samples can be used to assess the efficacy of dissemination inhibitor drugs that inhibit TMEM activity. For example, observe the effects of the following dissemination inhibitors on TMEM^Active using the quantitation methods for TMEM activity described in #1-3 above as follows: • a. Rebastinib, the Tie2 inhibitor which blocks VEGF^Hi TMEM macrophage function, (FIG. 11); • b. […]

Compound | blood vessel permeability (extravascular 155 kDa dextran-TMR) (macrophages; FIG. 5E) | tumor cell intravasation (circulating tumor cells) (macrophages; FIG. 5F) | TMEM density in 10 40× fields ([1]; FIG. 11A) | vascular permeability activity of tumor TMEM (IV-dextran/ZO-1 staining intensity) ([1]; FIG. 11B, n=7 and 9, P=0.0177)
CC[C@H](C(=O)N1CCCC[C@H]1C(=O)O[C@H](CCc1ccc(OC)c(OC)c1)c1cccc(OCC(=O)NCC(CNC(=O)COc2cccc([C@@H](CCc3ccc(OC)c(OC)c3)OC(=O)[C@@H]3CCCCN3C(=O)[C@@H](CC)c3cc(OC)c(OC)c(OC)c3)c2)CN(C)C)c1)c1cc(OC)c(OC)c(OC)c1 [B/B homodimerizer] | reduces | reduces | – | –
CNC(=O)c1cc(Oc2ccc(NC(=O)Nc3cc(C(C)(C)C)nn3-c3ccc4ncccc4c3)c(F)c2)ccn1 [Rebastinib] | – | – | not significant | inhibits TMEM activity
